Key:
[1] = 298.15 K, 101 kPa, Liquid; for viscosity: Capillary tube (Ostwald / Ubbelohde) method; for mass density: Pycnometric method
[2] = xn = mol fraction of the nth substance listed; conditions: 298.15 K, 101 kPa, Liquid; for viscosity: Capillary tube (Ostwald / Ubbelohde) method; for mass density: Pycnometric method

C1CCCCC1 [cyclohexane]
[1]
Conditions | mass density [kg/m3] | viscosity [mPa·s]
– | 773.8 | 0.892

C1CCCCC1 [cyclohexane] + CCCOC(C)=O
[2], x1 = 1
Conditions | mass density [kg/m3] | viscosity [mPa·s]
– | 773.8 | 0.892

C1CCCCC1 [cyclohexane] + CCOC(C)=O
[2], x1 = 1
Conditions | mass density [kg/m3] | viscosity [mPa·s]
– | 773.8 | 0.892

C1CCCCC1 [cyclohexane] + COC(C)=O
[2], x1 = 1
Conditions | mass density [kg/m3] | viscosity [mPa·s]
– | 773.8 | 0.892

C1CCCCC1 [cyclohexane] + O=C1CCCCC1
[2], x1 = 1
Conditions | mass density [kg/m3] | viscosity [mPa·s]
– | 773.8 | 0.892

O=C1CCCCC1 [cyclohexanone]
[1]
Conditions | mass density [kg/m3] | viscosity [mPa·s]
– | 941.6 | 2.02

O=C1CCCCC1 [cyclohexanone] + C1CCCCC1
[2]
Conditions | mass density [kg/m3] | viscosity [mPa·s]
x2 = 0 | 941.6 | 2.02
x2 = 0.1147 | 921.8 | 1.813
x2 = 0.2257 | 903 | 1.638
x2 = 0.3332 | 884.8 | 1.475
x2 = 0.4374 | 867.1 | 1.335
x2 = 0.5384 | 849.6 | 1.225
x2 = 0.6363 | 832.5 | 1.126
x2 = 0.7313 | 816 | 1.038
x2 = 0.8235 | 800 | 0.965
x2 = 0.913 | 785.9 | 0.921

O=C1CCCCC1 [cyclohexanone] + CCCOC(C)=O
[2]
Conditions | mass density [kg/m3] | viscosity [mPa·s]
x1 = 0.1036 | 888.2 | 0.609
x1 = 0.2064 | 894.2 | 0.666
x1 = 0.3084 | 900.4 | 0.731
x1 = 0.4096 | 906.5 | 0.821
x1 = 0.5099 | 912.4 | 0.926
x1 = 0.6095 | 918.4 | 1.049
x1 = 0.7083 | 924.3 | 1.199
x1 = 0.8063 | 930.2 | 1.407
x1 = 0.9035 | 936.1 | 1.685
x1 = 1 | 941.6 | 2.02

O=C1CCCCC1 [cyclohexanone] + CCOC(C)=O
[2]
Conditions | mass density [kg/m3] | viscosity [mPa·s]
x1 = 0.0907 | 898.3 | 0.47
x1 = 0.1833 | 902.6 | 0.521
x1 = 0.2778 | 907.3 | 0.585
x1 = 0.3744 | 912.3 | 0.667
x1 = 0.473 | 917.5 | 0.764
x1 = 0.5738 | 922.6 | 0.892
x1 = 0.6769 | 927.6 | 1.058
x1 = 0.7822 | 932.6 | 1.289
x1 = 0.8899 | 937.3 | 1.604
x1 = 1 | 941.6 | 2.02

O=C1CCCCC1 [cyclohexanone] + COC(C)=O
[2]
Conditions | mass density [kg/m3] | viscosity [mPa·s]
x1 = 0.0774 | 927.4 | 0.407
x1 = 0.1587 | 928.5 | 0.445
x1 = 0.2444 | 929.9 | 0.504
x1 = 0.3347 | 931.3 | 0.577
x1 = 0.4301 | 932.9 | 0.666
x1 = 0.531 | 934.6 | 0.779
x1 = 0.6378 | 936.4 | 0.936
x1 = 0.7512 | 938.2 | 1.163
x1 = 0.8717 | 940.2 | 1.488
x1 = 1 | 941.6 | 2.02

CCOC(C)=O [ethyl acetate]
[1]
Conditions | mass density [kg/m3] | viscosity [mPa·s]
– | 894.5 | 0.426

CCOC(C)=O [ethyl acetate] + C1CCCCC1
[2]
Conditions | mass density [kg/m3] | viscosity [mPa·s]
x2 = 0 | 894.5 | 0.426
x2 = 0.1042 | 877 | 0.432
x2 = 0.2074 | 861.2 | 0.436
x2 = 0.3097 | 847 | 0.441
x2 = 0.4111 | 833.9 | 0.462
x2 = 0.5115 | 822.1 | 0.493
x2 = 0.611 | 811.2 | 0.533
x2 = 0.7095 | 801.2 | 0.585
x2 = 0.8072 | 791.8 | 0.653
x2 = 0.904 | 782.7 | 0.749

CCOC(C)=O [ethyl acetate] + O=C1CCCCC1
[2], x2 = 0
Conditions | mass density [kg/m3] | viscosity [mPa·s]
– | 894.5 | 0.426

COC(C)=O [methyl ethanoate]
[1]
Conditions | mass density [kg/m3] | viscosity [mPa·s]
– | 926.8 | 0.38

COC(C)=O [methyl ethanoate] + C1CCCCC1
[2]
Conditions | mass density [kg/m3] | viscosity [mPa·s]
x2 = 0 | 926.8 | 0.38
x2 = 0.0891 | 903.7 | 0.381
x2 = 0.1804 | 883.3 | 0.383
x2 = 0.2739 | 864.7 | 0.388
x2 = 0.3698 | 848.5 | 0.407
x2 = 0.4681 | 833.1 | 0.437
x2 = 0.569 | 819.4 | 0.477
x2 = 0.6725 | 806.4 | 0.535
x2 = 0.7788 | 794.9 | 0.603
x2 = 0.8879 | 784.2 | 0.708

COC(C)=O [methyl ethanoate] + O=C1CCCCC1
[2], x2 = 0
Conditions | mass density [kg/m3] | viscosity [mPa·s]
– | 926.8 | 0.38

CCCOC(C)=O [propyl ethanoate]
[1]
Conditions | mass density [kg/m3] | viscosity [mPa·s]
– | 883 | 0.551

CCCOC(C)=O [propyl ethanoate] + C1CCCCC1
[2]
Conditions | mass density [kg/m3] | viscosity [mPa·s]
x2 = 0 | 883 | 0.551
x2 = 0.1188 | 868.5 | 0.54
x2 = 0.2328 | 854.7 | 0.548
x2 = 0.3421 | 841.8 | 0.554
x2 = 0.4472 | 829.9 | 0.572
x2 = 0.5482 | 819.3 | 0.587
x2 = 0.6454 | 809.3 | 0.625
x2 = 0.739 | 800 | 0.663
x2 = 0.8292 | 791.1 | 0.715
x2 = 0.9161 | 782.3 | 0.786

CCCOC(C)=O [propyl ethanoate] + O=C1CCCCC1
[2], x2 = 0
Conditions | mass density [kg/m3] | viscosity [mPa·s]
– | 883 | 0.551

Reference: the NIST ThermoML archive (doi:10.1021/je8007217)
